Consider one molecule from patent US7368423B1, “Composition and method for treating chronic allograft rejection” (priority 2001, dated 2008).

Experiment [1] concerns ACI to LEW rat cardiac transplant. It is filed as in vivo. The note with it: given with CSA. An excerpt:
An ACI-LEW rat cardiac transplant model was used to test the ability of 2-CDA to suppress allograft chronic rejection.
Animals were sacrificed at 90 days post transplant. Heart grafts were subjected to evaluation which included the quantification of the extent to which the following pathologies typically associated with chronic allograft rejection were present in the allograft models: myocardial Infiltration (MI), myocardial fibrosis (MF), and intimal proliferation (IP).
Each of these pathologies is associated with the vascular disease of transplant arteriosclerosis.

Experiment [2] has as its system allogeneic small bowel transplantation. The settings on record: rats sacrificed ten days after small bowel transplantation; cited from earlier work.
The next experiment relates to heart allografts. The settings on record: cited from earlier work.

Consider `Nc1nc(Cl)nc2c1ncn2[C@H]1C[C@H](O)[C@@H](CO)O1` [2-CDA, 2-chlorodeoxyadenosine], for which the “most effective dose of 2-CDA” value in experiment [1] was 1 mg per kilogram of recipient body mass per week. Further, in experiment [2], the “graft rejection (histology)” value is on record as “moderate to severe rejection”. The “effect on allograft rejection” value with heart allografts (2-CDA alone) is “no effect”. The “rejection of heart allografts (histology)” value with heart allografts (rats, 10 days post transplant) is “severe rejection”.
